The results in this text go back to ChEMBL document CHEMBL5126614 (ACS Med Chem Lett, 2022).

The species named for assay [1] is Macaca mulatta. Description: Selectivity ratio of EC50 for rhesus monkey GCGR to EC50 for rhesus monkey GLP1R.
The target in assay [2] is Glucagon receptor (Homo sapiens, UniProt P47871). In words: Agonist activity at human GCGR expressed in frozen cells assessed as increase in cAMP production measured after 1 hr by HitHunter luminescence assay. It counts as functional, cell-based. Background: Changes in cAMP serve as a functional read-out for many G protein-coupled receptors.
Chain of Glucagon receptor (P47871 whole entry): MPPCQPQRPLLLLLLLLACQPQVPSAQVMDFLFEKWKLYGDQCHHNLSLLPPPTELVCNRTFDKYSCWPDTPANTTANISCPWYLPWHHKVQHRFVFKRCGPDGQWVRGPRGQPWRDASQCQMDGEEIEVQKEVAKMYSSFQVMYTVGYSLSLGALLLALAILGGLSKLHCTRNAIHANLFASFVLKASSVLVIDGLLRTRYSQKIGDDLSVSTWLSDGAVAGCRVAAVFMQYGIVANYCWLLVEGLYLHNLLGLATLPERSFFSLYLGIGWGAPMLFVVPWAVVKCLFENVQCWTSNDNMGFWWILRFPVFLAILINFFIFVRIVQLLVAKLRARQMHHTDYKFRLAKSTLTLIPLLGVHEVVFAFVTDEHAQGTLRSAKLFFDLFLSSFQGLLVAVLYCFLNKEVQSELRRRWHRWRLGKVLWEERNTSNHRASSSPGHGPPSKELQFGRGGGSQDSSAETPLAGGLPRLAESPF
Assay [3] deals with Glucagon-like peptide 1 receptor (Homo sapiens, UniProt P43220). Description: Agonist activity at human GLP1R expressed in frozen cells assessed as increase in cAMP production measured after 1 hr by HitHunter luminescence assay. The assay is classed as functional, cell-based.
Chain of Glucagon-like peptide 1 receptor (P43220 whole entry): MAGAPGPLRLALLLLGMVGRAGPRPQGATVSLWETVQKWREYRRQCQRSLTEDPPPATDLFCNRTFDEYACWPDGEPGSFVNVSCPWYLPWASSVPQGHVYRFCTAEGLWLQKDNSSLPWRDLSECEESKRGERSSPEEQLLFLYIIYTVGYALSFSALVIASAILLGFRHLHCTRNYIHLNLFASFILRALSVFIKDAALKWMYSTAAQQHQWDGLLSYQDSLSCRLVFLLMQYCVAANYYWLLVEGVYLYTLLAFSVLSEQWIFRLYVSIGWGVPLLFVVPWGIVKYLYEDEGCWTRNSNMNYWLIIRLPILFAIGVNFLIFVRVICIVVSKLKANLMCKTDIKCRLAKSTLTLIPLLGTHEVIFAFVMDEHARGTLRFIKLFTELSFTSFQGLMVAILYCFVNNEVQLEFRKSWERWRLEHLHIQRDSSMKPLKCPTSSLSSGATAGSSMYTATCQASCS
For assay [4], the species on record is Homo sapiens. In words: Selectivity ratio of EC50 for human GCGR expressed in frozen cells to EC50 for human GLP1R expressed in frozen cells. The assay is classed as cell-based.
A short description of assay [5]: Agonist activity at rhesus monkey GCGR. On the set-up: species or system Macaca mulatta.
Assay [6] can be described thus: Agonist activity at rhesus monkey GLP1R. On the set-up: species or system Macaca mulatta.

What is called EC50 is the concentration needed to bring the measured effect to its halfway point. Regarding `CCCCCCCCCCCCCCCC(=O)N[C@@H](CCC(=O)N[C@@H](CCC(=O)NCCCC[C@H](NC(=O)[C@H](CC(=O)O)NC(=O)[C@H](CO)NC(=O)[C@@H](NC(=O)[C@H](Cc1ccccc1)NC(=O)[C@@H](NC(=O)CNC(=O)[C@H](CCC(N)=O)NC(=O)[C@@H](CO)NC(=O)[C@@H](N)Cc1cnc[nH]1)[C@@H](C)O)[C@@H](C)O)C(=O)N[C@@H](CO)C(=O)N[C@@H](CCCCN)C(=O)N[C@@H](Cc1ccc(O)cc1)C(=O)N[C@@H](CC(C)C)C(=O)N[C@@H](CC(=O)O)C(=O)NC(C)(C)C(=O)N[C@@H](CCCNC(=N)N)C(=O)N[C@@H](C)C(=O)N[C@@H](C)C(=O)N[C@@H](CCC(N)=O)C(=O)N[C@@H](CC(=O)O)C(=O)N[C@@H](Cc1ccccc1)C(=O)N[C@H](C(=O)N[C@@H](CCC(N)=O)C(=O)N[C@@H](Cc1c[nH]c2ccccc12)C(=O)N[C@@H](CC(C)C)C(=O)N[C@@H](CC(C)C)C(=O)N[C@@H](CC(=O)O)C(=O)N[C@H](C(N)=O)[C@@H](C)O)C(C)C)C(=O)O)C(=O)O`, the Ratio EC50 was found to be 0.5 in assay [1] and 1 in assay [4]. Further, the concentration for a half-maximal effect (EC50) came to 0.073 nM in assay [2], 0.074 nM in assay [3], 0.01 nM in assay [5] and 0.019 nM in assay [6].

Take `CCCCCCCCCCCCCCCC(=O)N[C@@H](CCC(=O)N[C@@H](CCC(=O)NCCCC[C@H](NC(=O)[C@H](CC(=O)O)NC(=O)[C@H](CO)NC(=O)[C@@H](NC(=O)[C@H](Cc1ccccc1)NC(=O)[C@@H](NC(=O)CNC(=O)[C@H](CCC(N)=O)NC(=O)C(C)(C)NC(=O)[C@@H](N)Cc1cnc[nH]1)[C@@H](C)O)[C@@H](C)O)C(=O)N[C@@H](CO)C(=O)N[C@@H](CCCCN)C(=O)N[C@@H](Cc1ccc(O)cc1)C(=O)N[C@@H](CC(C)C)C(=O)N[C@@H](CC(=O)O)C(=O)NC(C)(C)C(=O)N[C@@H](CCCNC(=N)N)C(=O)N[C@@H](CCCNC(=N)N)C(=O)N[C@@H](C)C(=O)N[C@@H](CCC(N)=O)C(=O)N[C@@H](CC(=O)O)C(=O)N[C@@H](Cc1ccccc1)C(=O)N[C@H](C(=O)N[C@@H](CCC(N)=O)C(=O)N[C@@H](Cc1c[nH]c2ccccc12)C(=O)N[C@@H](CC(C)C)C(=O)N[C@@H](CCSC)C(=O)N[C@@H](CC(N)=O)C(=O)N[C@H](C(=O)N[C@@H](CCCCNC(=O)CC[C@H](N)C(=O)O)C(N)=O)[C@@H](C)O)C(C)C)C(=O)O)C(=O)O`: the results for the EC50 in assay [2] and in assay [3] were 0.06 nM and 0.04 nM, respectively. The Ratio EC50 in assay [4] came to 1.5.

Consider `CCCCCCCCCCCCCCCC(=O)N[C@@H](CCC(=O)N[C@@H](CCC(=O)NCCCC[C@H](NC(=O)[C@H](CC(=O)O)NC(=O)[C@H](CO)NC(=O)[C@@H](NC(=O)[C@H](Cc1ccccc1)NC(=O)[C@@H](NC(=O)CNC(=O)[C@H](CCC(N)=O)NC(=O)C(C)(C)NC(=O)[C@@H](N)Cc1cnc[nH]1)[C@@H](C)O)[C@@H](C)O)C(=O)N[C@@H](CO)C(=O)N[C@@H](CCCCN)C(=O)N[C@@H](Cc1ccc(O)cc1)C(=O)N[C@@H](CC(C)C)C(=O)N[C@@H](CC(=O)O)C(=O)NC(C)(C)C(=O)N[C@@H](CCCNC(=N)N)C(=O)N[C@@H](C)C(=O)N[C@@H](C)C(=O)N[C@@H](CCC(N)=O)C(=O)N[C@@H](CC(=O)O)C(=O)N[C@@H](Cc1ccccc1)C(=O)N[C@H](C(=O)N[C@@H](CCC(N)=O)C(=O)N[C@@H](Cc1c[nH]c2ccccc12)C(=O)N[C@@H](CC(C)C)C(=O)N[C@@H](CC(C)C)C(=O)N[C@@H](CC(N)=O)C(=O)N[C@H](C(=O)N[C@@H](CCCCNC(=O)CC[C@H](N)C(=O)O)C(N)=O)[C@@H](C)O)C(C)C)C(=O)O)C(=O)O`, for which the Ratio EC50 turned out to be 2.4 in assay [1] and 2 in assay [4]. The EC50 in assay [2] was 0.058 nM; in assay [3], 0.029 nM; in assay [5], 0.334 nM; in assay [6] it was 0.14 nM.

As for `CCCCCCCCCCCCCCCC(=O)N[C@@H](CCC(=O)N[C@@H](CCC(=O)NCCCC[C@H](NC(=O)[C@H](CC(=O)O)NC(=O)[C@H](CO)NC(=O)[C@@H](NC(=O)[C@H](Cc1ccccc1)NC(=O)[C@@H](NC(=O)CNC(=O)[C@H](CCC(N)=O)NC(=O)[C@@H](CO)NC(=O)[C@@H](N)Cc1cnc[nH]1)[C@@H](C)O)[C@@H](C)O)C(=O)N[C@@H](CO)C(=O)N[C@@H](CCCCN)C(=O)N[C@@H](Cc1ccc(O)cc1)C(=O)N[C@@H](CC(C)C)C(=O)N[C@@H](CC(=O)O)C(=O)N[C@@H](CCC(=O)O)C(=O)N[C@@H](CCCNC(=N)N)C(=O)N[C@@H](C)C(=O)N[C@@H](C)C(=O)N[C@@H](CCC(N)=O)C(=O)N[C@@H](CC(=O)O)C(=O)N[C@@H](Cc1ccccc1)C(=O)N[C@H](C(=O)N[C@@H](CCC(N)=O)C(=O)N[C@@H](Cc1c[nH]c2ccccc12)C(=O)N[C@@H](CC(C)C)C(=O)N[C@@H](CC(C)C)C(=O)N[C@@H](CC(=O)O)C(=O)N[C@H](C(N)=O)[C@@H](C)O)C(C)C)C(=O)O)C(=O)O`, the Ratio EC50 came to 0.5 in assay [1] and 1.3 in assay [4]. The EC50 turned out to be 0.017 nM in assay [2], 0.013 nM in assay [3], 0.008 nM in assay [5] and 0.015 nM in assay [6].

On to `CCCCCCCCCCCCCCCC(=O)N[C@@H](CCC(=O)N[C@@H](CCC(=O)NCCCC[C@H](NC(=O)[C@H](CC(=O)O)NC(=O)[C@H](CO)NC(=O)[C@@H](NC(=O)[C@H](Cc1ccccc1)NC(=O)[C@@H](NC(=O)CNC(=O)[C@H](CCC(N)=O)NC(=O)C(C)(C)NC(=O)[C@@H](N)Cc1cnc[nH]1)[C@@H](C)O)[C@@H](C)O)C(=O)N[C@@H](CO)C(=O)N[C@@H](CCCCN)C(=O)N[C@@H](Cc1ccc(O)cc1)C(=O)N[C@@H](CC(C)C)C(=O)N[C@@H](CC(=O)O)C(=O)NC(C)(C)C(=O)N[C@@H](CCCNC(=N)N)C(=O)N[C@@H](C)C(=O)N[C@@H](C)C(=O)N[C@@H](CCC(N)=O)C(=O)N[C@@H](CC(=O)O)C(=O)N[C@@H](Cc1ccccc1)C(=O)N[C@H](C(=O)N[C@@H](CCC(N)=O)C(=O)N[C@@H](Cc1c[nH]c2ccccc12)C(=O)N[C@@H](CC(C)C)C(=O)N[C@@H](CC(C)C)C(=O)N[C@@H](CC(=O)O)C(=O)N[C@H](C(N)=O)[C@@H](C)O)C(C)C)C(=O)O)C(=O)O`, for which the figures for the Ratio EC50 in assay [1] and in assay [4] were 2.6 and 1.1, respectively. Moreover, the EC50 in assay [2] amounted to 0.039 nM; in assay [3], 0.034 nM; in assay [5], 0.022 nM; in assay [6], 0.009 nM.

With `CCCCCCCCCCCCCCCC(=O)N[C@@H](CCC(=O)N[C@@H](CCC(=O)NCCCC[C@H](NC(=O)[C@H](CC(=O)O)NC(=O)[C@H](CO)NC(=O)[C@@H](NC(=O)[C@H](Cc1ccccc1)NC(=O)[C@@H](NC(=O)CNC(=O)[C@H](CCC(N)=O)NC(=O)[C@@H](CO)NC(=O)[C@@H](N)Cc1cnc[nH]1)[C@@H](C)O)[C@@H](C)O)C(=O)N[C@@H](CO)C(=O)N[C@@H](CCCCN)C(=O)N[C@@H](Cc1ccc(O)cc1)C(=O)N[C@@H](CC(C)C)C(=O)N[C@@H](CC(=O)O)C(=O)N[C@H](C(=O)N[C@@H](CCCNC(=N)N)C(=O)N[C@@H](C)C(=O)N[C@@H](C)C(=O)N[C@@H](CCC(N)=O)C(=O)N[C@@H](CC(=O)O)C(=O)N[C@@H](Cc1ccccc1)C(=O)N[C@H](C(=O)N[C@@H](CCC(N)=O)C(=O)N[C@@H](Cc1c[nH]c2ccccc12)C(=O)N[C@@H](CC(C)C)C(=O)N[C@@H](CC(C)C)C(=O)N[C@@H](CC(=O)O)C(=O)N[C@H](C(N)=O)[C@@H](C)O)C(C)C)C(C)C)C(=O)O)C(=O)O`, the figures for the Ratio EC50 in assay [1] and in assay [4] were 0.9 and 0.5, respectively. Besides, the concentration giving a half-maximal response (EC50) in assay [2] worked out at 0.062 nM; in assay [5] it was 0.018 nM; in assay [6], 0.021 nM.

Take GLUCAGON: the figures for the EC50 in assay [5] and in assay [6] were 0.003 nM and 0.038 nM, respectively.

`CCCCCCCCCCCCCCCC(=O)N[C@@H](CCC(=O)N[C@@H](CCC(=O)NCCCC[C@H](NC(=O)[C@H](CC(=O)O)NC(=O)[C@H](CO)NC(=O)[C@@H](NC(=O)[C@H](Cc1ccccc1)NC(=O)[C@@H](NC(=O)CNC(=O)[C@H](CCC(N)=O)NC(=O)C(C)(C)NC(=O)[C@@H](N)Cc1cnc[nH]1)[C@@H](C)O)[C@@H](C)O)C(=O)N[C@@H](CO)C(=O)N[C@@H](CCCCN)C(=O)N[C@@H](Cc1ccc(O)cc1)C(=O)N[C@@H](CC(C)C)C(=O)N[C@@H](CC(=O)O)C(=O)NC(C)(C)C(=O)N[C@@H](CCCNC(=N)N)C(=O)N[C@@H](CCCNC(=N)N)C(=O)N[C@@H](C)C(=O)N[C@@H](CCC(N)=O)C(=O)N[C@@H](CC(=O)O)C(=O)N[C@@H](Cc1ccccc1)C(=O)N[C@H](C(=O)N[C@@H](CCC(N)=O)C(=O)N[C@@H](Cc1c[nH]c2ccccc12)C(=O)N[C@@H](CC(C)C)C(=O)N[C@@H](CCSC)C(=O)N[C@@H](CC(N)=O)C(=O)N[C@H](C(N)=O)[C@@H](C)O)C(C)C)C(=O)O)C(=O)O`: the results for the EC50 in assay [2] and in assay [3] were 0.035 nM and 0.02 nM, respectively. Further, in assay [4], the Ratio EC50 amounted to 1.8.

Turning to `CCCCCCCCCCCCCCCC(=O)N[C@@H](CCC(=O)N[C@@H](CCC(=O)NCCCC[C@H](NC(=O)[C@H](CC(=O)O)NC(=O)[C@H](CO)NC(=O)[C@@H](NC(=O)[C@H](Cc1ccccc1)NC(=O)[C@@H](NC(=O)CNC(=O)[C@H](CCC(N)=O)NC(=O)C(C)(C)NC(=O)[C@@H](N)Cc1cnc[nH]1)[C@@H](C)O)[C@@H](C)O)C(=O)N[C@@H](CO)C(=O)N[C@@H](CCCCN)C(=O)N[C@@H](Cc1ccc(O)cc1)C(=O)N[C@@H](CC(C)C)C(=O)N[C@@H](CC(=O)O)C(=O)NC(C)(C)C(=O)N[C@@H](CCCNC(=N)N)C(=O)N[C@@H](CCCNC(=N)N)C(=O)N[C@@H](C)C(=O)N[C@@H](CCC(N)=O)C(=O)N[C@@H](CC(=O)O)C(=O)N[C@@H](Cc1ccccc1)C(=O)N[C@H](C(=O)N[C@@H](CCC(N)=O)C(=O)N[C@@H](Cc1c[nH]c2ccccc12)C(=O)N[C@@H](CC(C)C)C(=O)N[C@@H](CC(C)C)C(=O)N[C@@H](CC(N)=O)C(=O)N[C@H](C(=O)N[C@@H](CCCCNC(=O)CC[C@H](N)C(=O)O)C(N)=O)[C@@H](C)O)C(C)C)C(=O)O)C(=O)O`, the 50% effective concentration (EC50) in assay [2] was 0.006 nM; in assay [3], 0.005 nM. For the same molecule, in assay [4], the Ratio EC50 came to 1.2.
